Test results taken from the kinase profiling compilation of Christmann-Franck et al. (2016).

Columns and labels:
Test in all cases: radiometric filter-binding kinase assay, Kinase HotSpot
Conditions in all cases: compound 0.5 µM; ATP 10 µM
MAPKAPK2 (human) = MAPKAPK2 (human) (UniProt P49137)
DYRK3 (human) = DYRK3 (human) (UniProt O43781)
IRAK4 (human) = IRAK4 (human) (UniProt Q9NWZ3)
ITK (human) = ITK (human) (UniProt Q08881)
IGF1R (human) = IGF1R (human) (UniProt P08069)
EPHA3 (human) = EPHA3 (human) (UniProt P29320)
BMX (human) = BMX (human) (UniProt P51813)
STK39 (human) = STK39 (human) (UniProt Q9UEW8)
PIM3 (human) = PIM3 (human) (UniProt Q86V86)
CAMK2G (human) = CAMK2G (human) (UniProt Q13555)
MINK1 (human) = MINK1 (human) (UniProt Q8N4C8)
PRKCB2 (human) = PRKCB2 (human) (UniProt P05771)
PBK (human) = PBK (human) (UniProt Q96KB5)
PRKD1 (human) = PRKD1 (human) (UniProt Q15139)
SRC (human) = SRC (human) (UniProt P12931)
WNK2 (human) = WNK2 (human) (UniProt Q9Y3S1)
MUSK (human) = MUSK (human) (UniProt O15146)
YES1 (human) = YES1 (human) (UniProt P07947)
CDK2 CCNE1 (human) = CDK2 CCNE1 (human) (UniProt P24941+P24864)
PKN1 (human) = PKN1 (human) (UniProt Q16512)
NEK11 (human) = NEK11 (human) (UniProt Q8NG66)
CDK6 CCND3 (human) = CDK6 CCND3 (human) (UniProt P30281+Q00534)
CAMK2A (human) = CAMK2A (human) (UniProt Q9UQM7)
ROCK2 (human) = ROCK2 (human) (UniProt O75116)
SLK (human) = SLK (human) (UniProt Q9H2G2)
CSF1R (human) = CSF1R (human) (UniProt P07333)
MAP4K2 (human) = MAP4K2 (human) (UniProt Q12851)
MAP2K2 (human) = MAP2K2 (human) (UniProt P36507)
RPS6KA3 KD1 KD2 (human) = RPS6KA3 KD1 KD2 (human) (UniProt P51812)
GSG2 (human) = GSG2 (human) (UniProt Q8TF76)
PAK1 (human) = PAK1 (human) (UniProt Q13153)
MAPK1 (human) = MAPK1 (human) (UniProt P28482)
RPS6KA4 KD2 (human) = RPS6KA4 KD2 (human) (UniProt O75676)
[1] = biological target: TYK2 JH1 catalytic (human) (UniProt P29597)
FER (human) = FER (human) (UniProt P16591)
MST1R (human) = MST1R (human) (UniProt Q04912)
ROCK1 (human) = ROCK1 (human) (UniProt Q13464)
MAP2K1 (human) = MAP2K1 (human) (UniProt Q02750)
MATK (human) = MATK (human) (UniProt P42679)
PTK2 (human) = PTK2 (human) (UniProt Q05397)
TNK2 (human) = TNK2 (human) (UniProt Q07912)

PBK (human), sequence (Q96KB5 whole entry, looked up): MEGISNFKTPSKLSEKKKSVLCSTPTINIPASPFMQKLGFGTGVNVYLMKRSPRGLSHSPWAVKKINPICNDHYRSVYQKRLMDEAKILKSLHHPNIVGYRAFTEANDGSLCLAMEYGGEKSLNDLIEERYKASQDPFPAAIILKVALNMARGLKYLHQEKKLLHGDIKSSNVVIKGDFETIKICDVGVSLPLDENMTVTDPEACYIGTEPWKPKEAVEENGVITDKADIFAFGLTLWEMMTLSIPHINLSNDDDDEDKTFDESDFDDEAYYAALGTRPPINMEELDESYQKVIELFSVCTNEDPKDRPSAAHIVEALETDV
EPHA3 (human), sequence (P29320 whole entry, looked up): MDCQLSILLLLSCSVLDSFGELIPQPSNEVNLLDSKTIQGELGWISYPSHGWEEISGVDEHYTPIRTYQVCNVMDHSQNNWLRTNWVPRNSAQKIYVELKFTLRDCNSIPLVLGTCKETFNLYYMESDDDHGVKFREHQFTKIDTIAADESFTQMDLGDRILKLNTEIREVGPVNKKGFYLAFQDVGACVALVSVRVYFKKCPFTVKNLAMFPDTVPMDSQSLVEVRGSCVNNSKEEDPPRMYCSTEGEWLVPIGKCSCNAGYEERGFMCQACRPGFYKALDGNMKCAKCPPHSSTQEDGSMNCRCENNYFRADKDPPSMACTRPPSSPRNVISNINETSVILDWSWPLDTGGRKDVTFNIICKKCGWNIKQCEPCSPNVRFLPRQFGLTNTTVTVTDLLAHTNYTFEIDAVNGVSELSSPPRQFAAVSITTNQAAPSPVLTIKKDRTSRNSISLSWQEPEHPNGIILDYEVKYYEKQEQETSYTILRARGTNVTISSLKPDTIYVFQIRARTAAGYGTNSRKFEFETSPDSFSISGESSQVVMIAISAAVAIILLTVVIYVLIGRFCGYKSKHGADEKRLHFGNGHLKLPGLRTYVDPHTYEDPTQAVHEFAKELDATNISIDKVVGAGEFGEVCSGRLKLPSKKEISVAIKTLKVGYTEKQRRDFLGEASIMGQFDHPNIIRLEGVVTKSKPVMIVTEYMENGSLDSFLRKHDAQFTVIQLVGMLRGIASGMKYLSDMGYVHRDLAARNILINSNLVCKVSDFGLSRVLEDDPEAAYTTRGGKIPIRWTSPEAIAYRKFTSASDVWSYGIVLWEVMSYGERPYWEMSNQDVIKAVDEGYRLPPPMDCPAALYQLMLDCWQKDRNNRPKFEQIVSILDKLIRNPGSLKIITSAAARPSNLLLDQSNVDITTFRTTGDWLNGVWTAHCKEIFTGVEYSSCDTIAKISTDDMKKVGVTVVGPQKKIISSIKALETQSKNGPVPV
MINK1 (human), sequence (Q8N4C8 whole entry, looked up): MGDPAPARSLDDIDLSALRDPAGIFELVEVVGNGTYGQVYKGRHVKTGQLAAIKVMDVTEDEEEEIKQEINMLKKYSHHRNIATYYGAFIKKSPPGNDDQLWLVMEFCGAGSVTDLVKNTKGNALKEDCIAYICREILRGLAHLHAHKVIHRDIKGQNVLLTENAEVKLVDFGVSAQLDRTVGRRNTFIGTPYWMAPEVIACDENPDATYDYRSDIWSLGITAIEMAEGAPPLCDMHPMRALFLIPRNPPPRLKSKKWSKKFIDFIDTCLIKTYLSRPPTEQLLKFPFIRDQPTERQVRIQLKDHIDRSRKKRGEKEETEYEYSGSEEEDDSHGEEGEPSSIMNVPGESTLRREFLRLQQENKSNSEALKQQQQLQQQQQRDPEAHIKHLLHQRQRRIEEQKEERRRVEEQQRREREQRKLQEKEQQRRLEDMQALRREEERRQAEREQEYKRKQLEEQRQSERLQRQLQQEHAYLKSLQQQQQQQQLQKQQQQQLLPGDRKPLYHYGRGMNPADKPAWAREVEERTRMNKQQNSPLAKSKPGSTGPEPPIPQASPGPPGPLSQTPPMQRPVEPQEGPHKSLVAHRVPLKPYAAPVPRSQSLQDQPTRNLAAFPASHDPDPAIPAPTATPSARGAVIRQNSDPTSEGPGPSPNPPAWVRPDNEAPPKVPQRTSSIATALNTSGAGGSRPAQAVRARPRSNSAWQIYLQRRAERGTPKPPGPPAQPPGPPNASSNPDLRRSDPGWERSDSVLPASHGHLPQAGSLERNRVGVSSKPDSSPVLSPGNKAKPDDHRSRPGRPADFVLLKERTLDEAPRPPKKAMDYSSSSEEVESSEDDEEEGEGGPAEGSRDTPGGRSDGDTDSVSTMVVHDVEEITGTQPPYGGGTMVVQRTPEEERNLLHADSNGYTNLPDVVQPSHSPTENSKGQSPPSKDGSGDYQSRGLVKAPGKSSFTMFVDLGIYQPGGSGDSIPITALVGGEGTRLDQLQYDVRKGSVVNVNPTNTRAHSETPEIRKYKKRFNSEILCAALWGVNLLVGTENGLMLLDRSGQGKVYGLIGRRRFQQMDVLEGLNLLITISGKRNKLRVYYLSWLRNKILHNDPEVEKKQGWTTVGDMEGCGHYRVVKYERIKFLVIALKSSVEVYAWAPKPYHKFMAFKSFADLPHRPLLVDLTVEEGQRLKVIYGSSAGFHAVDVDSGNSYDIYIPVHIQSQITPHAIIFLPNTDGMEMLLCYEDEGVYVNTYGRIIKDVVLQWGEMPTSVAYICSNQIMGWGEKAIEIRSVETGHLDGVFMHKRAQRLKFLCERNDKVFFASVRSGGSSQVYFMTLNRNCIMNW
MAP2K2 (human), sequence (P36507 whole entry, looked up): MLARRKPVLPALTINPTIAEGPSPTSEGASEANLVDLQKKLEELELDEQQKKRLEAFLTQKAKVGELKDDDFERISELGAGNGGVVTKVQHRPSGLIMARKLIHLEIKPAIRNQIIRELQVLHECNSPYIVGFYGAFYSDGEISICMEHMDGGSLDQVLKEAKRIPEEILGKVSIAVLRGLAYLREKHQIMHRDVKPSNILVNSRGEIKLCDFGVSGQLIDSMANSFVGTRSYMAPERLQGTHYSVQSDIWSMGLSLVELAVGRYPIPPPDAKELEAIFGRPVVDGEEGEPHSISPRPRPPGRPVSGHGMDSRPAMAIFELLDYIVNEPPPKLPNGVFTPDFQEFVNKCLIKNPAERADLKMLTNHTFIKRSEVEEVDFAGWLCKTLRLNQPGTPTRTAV
ROCK1 (human), sequence (Q13464 whole entry, looked up): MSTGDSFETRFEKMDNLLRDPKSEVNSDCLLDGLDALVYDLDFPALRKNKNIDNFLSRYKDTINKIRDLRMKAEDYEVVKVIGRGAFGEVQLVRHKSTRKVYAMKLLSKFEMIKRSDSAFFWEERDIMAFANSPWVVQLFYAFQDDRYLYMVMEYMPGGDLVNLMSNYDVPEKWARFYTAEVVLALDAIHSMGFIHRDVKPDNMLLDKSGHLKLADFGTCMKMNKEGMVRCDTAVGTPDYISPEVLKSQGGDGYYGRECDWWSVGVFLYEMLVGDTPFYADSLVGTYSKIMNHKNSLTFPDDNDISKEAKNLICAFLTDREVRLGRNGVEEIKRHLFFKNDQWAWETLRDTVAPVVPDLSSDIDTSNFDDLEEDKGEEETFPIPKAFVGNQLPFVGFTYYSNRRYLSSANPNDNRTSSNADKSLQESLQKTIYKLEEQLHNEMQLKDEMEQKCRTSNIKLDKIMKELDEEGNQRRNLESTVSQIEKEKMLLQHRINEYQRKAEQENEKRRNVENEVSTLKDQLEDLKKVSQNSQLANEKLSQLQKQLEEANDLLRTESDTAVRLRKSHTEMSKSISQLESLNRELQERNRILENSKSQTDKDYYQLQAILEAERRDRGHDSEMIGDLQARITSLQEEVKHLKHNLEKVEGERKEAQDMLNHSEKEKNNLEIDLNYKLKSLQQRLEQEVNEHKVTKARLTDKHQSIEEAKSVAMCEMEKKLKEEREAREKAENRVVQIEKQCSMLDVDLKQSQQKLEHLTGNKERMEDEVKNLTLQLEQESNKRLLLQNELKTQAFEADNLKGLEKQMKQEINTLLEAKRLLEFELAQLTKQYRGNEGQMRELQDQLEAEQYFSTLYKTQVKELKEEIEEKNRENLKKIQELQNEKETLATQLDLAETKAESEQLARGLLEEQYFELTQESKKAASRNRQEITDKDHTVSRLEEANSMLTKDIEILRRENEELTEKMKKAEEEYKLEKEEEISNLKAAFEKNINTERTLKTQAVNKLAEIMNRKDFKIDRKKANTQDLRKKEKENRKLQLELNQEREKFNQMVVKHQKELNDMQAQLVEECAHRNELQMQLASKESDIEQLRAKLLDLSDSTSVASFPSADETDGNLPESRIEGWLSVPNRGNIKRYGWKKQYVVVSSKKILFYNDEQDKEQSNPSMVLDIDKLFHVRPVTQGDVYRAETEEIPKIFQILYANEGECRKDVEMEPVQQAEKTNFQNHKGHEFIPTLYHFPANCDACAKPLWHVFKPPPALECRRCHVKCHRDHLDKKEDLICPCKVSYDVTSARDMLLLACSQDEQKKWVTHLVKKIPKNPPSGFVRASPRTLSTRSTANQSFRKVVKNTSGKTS
MATK (human), sequence (P42679 whole entry, looked up): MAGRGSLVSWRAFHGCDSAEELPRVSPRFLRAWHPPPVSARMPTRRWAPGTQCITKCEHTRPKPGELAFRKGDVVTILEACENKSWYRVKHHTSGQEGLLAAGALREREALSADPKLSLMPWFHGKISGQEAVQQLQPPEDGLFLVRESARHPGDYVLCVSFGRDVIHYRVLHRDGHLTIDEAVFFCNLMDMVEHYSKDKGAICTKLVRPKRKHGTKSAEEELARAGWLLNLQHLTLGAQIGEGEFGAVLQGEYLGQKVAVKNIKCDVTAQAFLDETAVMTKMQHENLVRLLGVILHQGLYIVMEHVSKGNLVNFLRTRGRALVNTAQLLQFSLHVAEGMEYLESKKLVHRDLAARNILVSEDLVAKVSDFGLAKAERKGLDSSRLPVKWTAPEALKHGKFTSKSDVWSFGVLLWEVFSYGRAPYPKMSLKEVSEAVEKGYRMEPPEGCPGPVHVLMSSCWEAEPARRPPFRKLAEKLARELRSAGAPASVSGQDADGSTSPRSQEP

`O=C1Nc2cc(Br)ccc2/C1=C1/Nc2ccccc2/C1=N\O` was tested, and the residual activity (MAPKAPK2 (human)) was 86.9%, the residual activity (DYRK3 (human)) was 104% and the residual activity (IRAK4 (human)) was 90.1%. For the same compound, the residual activity (ITK (human)) was 46.6%, the residual activity (IGF1R (human)) was 103% and the residual activity (EPHA3 (human)) was 81.9%. For the same compound, the residual activity (BMX (human)) was 29.2%, the residual activity (STK39 (human)) was 104% and the residual activity (PIM3 (human)) was 73.2%. The residual activity (CAMK2G (human)) was 28.3%, the residual activity (MINK1 (human)) was 47.8% and the residual activity (PRKCB2 (human)) was 108%. It also gave a residual activity (PBK (human)) of 109%, a residual activity (PRKD1 (human)) of 93.6% and a residual activity (SRC (human)) of 7.64%. The residual activity (WNK2 (human)) was 104%, the residual activity (MUSK (human)) was 84.5% and the residual activity (YES1 (human)) was 15.8%. The residual activity (CDK2 CCNE1 (human)) was 15.4%, the residual activity (PKN1 (human)) was 82.2% and the residual activity (NEK11 (human)) was 118%. For the same compound, the residual activity (CDK6 CCND3 (human)) was 25.4%, the residual activity (CAMK2A (human)) was 13.9% and the residual activity (ROCK2 (human)) was 92.1%. It also gave a residual activity (SLK (human)) of 56.1%, a residual activity (CSF1R (human)) of 74.4% and a residual activity (MAP4K2 (human)) of 61.5%. For the same compound, the residual activity (MAP2K2 (human)) was 92.4%, the residual activity (RPS6KA3 KD1 KD2 (human)) was 65.7% and the residual activity (GSG2 (human)) was 95.9%. For the same compound, the residual activity (PAK1 (human)) was 89.8%, the residual activity (MAPK1 (human)) was 113% and the residual activity (RPS6KA4 KD2 (human)) was 56.1%. It also gave a residual activity [1] of 25.6%, a residual activity (FER (human)) of 69.8% and a residual activity (MST1R (human)) of 98.7%. For the same compound, the residual activity (ROCK1 (human)) was 99%, the residual activity (MAP2K1 (human)) was 103% and the residual activity (MATK (human)) was 99.6%. For the same compound, the residual activity (PTK2 (human)) was 89%.

For `CS(=O)c1ccc(-c2nc(-c3ccc(F)cc3)c(-c3ccncc3)[nH]2)cc1` (centres undefined), the residual activity (DYRK3 (human)) was 99%, the residual activity (IRAK4 (human)) was 130% and the residual activity (ITK (human)) was 97%. For the same compound, the residual activity (IGF1R (human)) was 94.3%, the residual activity (EPHA3 (human)) was 96.1% and the residual activity (BMX (human)) was 94.4%. For the same compound, the residual activity (STK39 (human)) was 93.9%, the residual activity (TNK2 (human)) was 82.1% and the residual activity (PIM3 (human)) was 98.1%. It also gave a residual activity (CAMK2G (human)) of 82.2%, a residual activity (MINK1 (human)) of 107% and a residual activity (PRKCB2 (human)) of 97.9%. It also gave a residual activity (PBK (human)) of 102%, a residual activity (SRC (human)) of 92.6% and a residual activity (WNK2 (human)) of 103%. The residual activity (MUSK (human)) was 90.3%, the residual activity (YES1 (human)) was 92.6% and the residual activity (CDK2 CCNE1 (human)) was 93.1%. For the same compound, the residual activity (PKN1 (human)) was 96.5%, the residual activity (NEK11 (human)) was 81.3% and the residual activity (CDK6 CCND3 (human)) was 94.6%. For the same compound, the residual activity (CAMK2A (human)) was 101%, the residual activity (ROCK2 (human)) was 98.4% and the residual activity (SLK (human)) was 94.1%. The residual activity (CSF1R (human)) was 95.5%, the residual activity (MAP4K2 (human)) was 106% and the residual activity (MAP2K2 (human)) was 99.9%. The residual activity (RPS6KA3 KD1 KD2 (human)) was 95.7%, the residual activity (GSG2 (human)) was 88.3% and the residual activity (PAK1 (human)) was 99.2%. It also gave a residual activity (MAPK1 (human)) of 94.7%, a residual activity (RPS6KA4 KD2 (human)) of 99.6% and a residual activity [1] of 102%. For the same compound, the residual activity (FER (human)) was 95%, the residual activity (MST1R (human)) was 101% and the residual activity (ROCK1 (human)) was 102%. The residual activity (MAP2K1 (human)) was 94.8%, the residual activity (MATK (human)) was 95.6% and the residual activity (PTK2 (human)) was 95.5%.
